# The source made the active and inactive calls.
# Tests used:
# [1] = biological target: T1, High affinity choline transporter 1 (Homo sapiens, UniProt Q9GZV3); experiment: CHT activators, dose response, cell-based, 10-point CRC, membrane potential dye (AID 602376); type: functional
# T1 sequence (Q9GZV3 whole entry): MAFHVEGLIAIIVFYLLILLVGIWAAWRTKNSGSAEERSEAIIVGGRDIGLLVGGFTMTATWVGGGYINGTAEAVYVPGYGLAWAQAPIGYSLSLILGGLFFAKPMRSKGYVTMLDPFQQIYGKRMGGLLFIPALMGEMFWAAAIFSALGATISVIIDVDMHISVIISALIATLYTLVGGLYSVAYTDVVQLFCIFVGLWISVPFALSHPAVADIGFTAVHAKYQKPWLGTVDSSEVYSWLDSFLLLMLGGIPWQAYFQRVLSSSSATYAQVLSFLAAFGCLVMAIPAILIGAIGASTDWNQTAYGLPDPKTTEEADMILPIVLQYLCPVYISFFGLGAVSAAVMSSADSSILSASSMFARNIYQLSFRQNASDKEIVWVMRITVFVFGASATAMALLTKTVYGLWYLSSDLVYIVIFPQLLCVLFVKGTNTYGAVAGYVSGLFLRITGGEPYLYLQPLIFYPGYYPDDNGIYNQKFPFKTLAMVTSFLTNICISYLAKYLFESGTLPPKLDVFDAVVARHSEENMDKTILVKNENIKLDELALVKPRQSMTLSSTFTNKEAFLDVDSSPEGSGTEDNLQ
# cells [2] = type: functional, cell-based
# [3] = biological target: T2, Trace amine-associated receptor 1 (Homo sapiens, UniProt Q96RJ0); experiment: Fluorescence-based cell-based high throughput dose response assay to identify agonists of the human trace amine associated receptor 1 (TAAR1).; type: functional
# T2 sequence (Q96RJ0 whole entry): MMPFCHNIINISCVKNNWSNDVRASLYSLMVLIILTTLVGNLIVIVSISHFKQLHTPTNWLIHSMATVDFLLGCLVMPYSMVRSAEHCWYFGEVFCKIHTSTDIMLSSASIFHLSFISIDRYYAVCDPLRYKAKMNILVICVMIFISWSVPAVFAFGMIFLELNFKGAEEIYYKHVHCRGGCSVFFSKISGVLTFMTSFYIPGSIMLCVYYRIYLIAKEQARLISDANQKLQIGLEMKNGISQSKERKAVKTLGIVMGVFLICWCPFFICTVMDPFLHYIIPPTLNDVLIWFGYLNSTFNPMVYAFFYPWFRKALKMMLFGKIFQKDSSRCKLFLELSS
# [4] = biological target: T2, Trace amine-associated receptor 1; experiment: Counterscreen for agonists of the human trace amine associated receptor 1 (hTAAR1): Fluorescence-based cell-based high throughput dose response assay to identify hTAAR1 agonist that also desensitize TAAR1 receptor response.; type: functional
# cells [5] = type: functional, cell-based; remark: listed apart in the source
# [6] = biological target: Protein kinase C theta type (Homo sapiens, UniProt Q04759); experiment: Navigating the Kinome. Panel member name: PRKCQ; type: functional
# [7] = biological target: Ribosomal protein S6 kinase alpha-3 (Homo sapiens, UniProt P51812); type: functional;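 also: measured within a kinome-wide profiling panel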
# [8] = biological target: Dual specificity protein kinase CLK2 (Homo sapiens, UniProt P49760); type: functional
# [9] = biological target: Dual specificity mitogen-activated protein kinase kinase 1 (Homo sapiens, UniProt Q02750); experiment: Navigating the Kinome. Panel member name: MAP2K1; type: functional
# [10] = biological target: Tyrosine-protein kinase JAK2 (Homo sapiens, UniProt O60674); type: functional;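 also: JAK2 tested as one member of a kinase panel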
# [11] = biological target: Serine/threonine-protein kinase TBK1 (Homo sapiens, UniProt Q9UHD2); experiment: Navigating the Kinome. Panel member name: TBK1; type: functional
# [12] = biological target: 5'-AMP-activated protein kinase catalytic subunit alpha-1 (Homo sapiens, UniProt Q13131); type: functional
# [13] = biological target: ALK tyrosine kinase receptor (Homo sapiens, UniProt Q9UM73); type: functional;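 also: ALK tested as one member of a kinase panel screen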
# [14] = biological target: Tyrosine-protein kinase receptor TYRO3 (Homo sapiens, UniProt Q06418); type: functional;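 also: TYRO3 value obtained as one member of a kinome-wide profiling panel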
# [15] = biological target: Serine/threonine-protein kinase D3 (Homo sapiens, UniProt O94806); type: functional;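 also: determined within a kinase panel screen, with PRKCN as the panel member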
# [16] = biological target: Death-associated protein kinase 3 (Homo sapiens, UniProt O43293); type: functional;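 also: measured as one member of a kinome-wide profiling panel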
# Activin receptor type-1 = Activin receptor type-1 (Homo sapiens, UniProt Q04771); experiment: Navigating the Kinome. Panel member name: ACVR1; type: functional
# [17] = biological target: Mitogen-activated protein kinase 8 (Homo sapiens, UniProt P45983); type: functional;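 also: value comes from one member of a kinome-wide kinase profiling panel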
# Aurora kinase A = Aurora kinase A (Homo sapiens, UniProt O14965); type: functional;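 also: value from the Navigating the Kinome kinase panel profiling, panel entry STK6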
# [18] = biological target: Tyrosine-protein kinase BTK (Homo sapiens, UniProt Q06187); type: functional
# [19] = biological target: Serine/threonine-protein kinase PAK 4 (Homo sapiens, UniProt O96013); type: functional;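 also: value obtained within a kinome profiling panel in which PAK4 was one of the panel members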
# [20] = biological target: Fibroblast growth factor receptor 1 (Homo sapiens, UniProt P11362); type: functional
# [21] = biological target: Casein kinase I isoform alpha (Homo sapiens, UniProt P48729); type: functional
# [22] = biological target: Tyrosine-protein kinase JAK3 (Homo sapiens, UniProt P52333); type: functional
# [23] = biological target: Mitogen-activated protein kinase 9 (Homo sapiens, UniProt P45984); type: functional;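 also: value from a kinome panel profiling assay, MAPK9 panel entry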
# [24] = biological target: Glycogen synthase kinase-3 alpha (Homo sapiens, UniProt P49840); type: functional;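 also: GSK3A result taken from a broad kinome-wide kinase panel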
# [25] = biological target: Mitogen-activated protein kinase kinase kinase kinase 2 (Homo sapiens, UniProt Q12851); type: functional;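 also: measured as one member of a kinome-wide kinase panel, with MAP4K2 as the panel entry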
# Activated CDC42 kinase 1 = Activated CDC42 kinase 1 (Homo sapiens, UniProt Q07912); experiment: Navigating the Kinome. Panel member name: ACK1; type: functional
# [26] = biological target: Platelet-derived growth factor receptor beta (Homo sapiens, UniProt P09619); type: functional;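 also: value comes from a kinome panel, with PDGFRB tested as one panel member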
# [27] = biological target: Tyrosine-protein kinase ABL1 (Homo sapiens, UniProt P00519); type: functional
# [28] = biological target: Vascular endothelial growth factor receptor 2 (Homo sapiens, UniProt P35968); type: functional
# [29] = biological target: Cyclin-dependent kinase 5 (Homo sapiens, UniProt Q00535); type: functional;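 also: CDK5 measured as one member of a kinase profiling panel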
# [30] = biological target: Dual specificity tyrosine-phosphorylation-regulated kinase 1B (Homo sapiens, UniProt Q9Y463); experiment: Navigating the Kinome. Panel member name: DYRK1B; type: functional
# Focal adhesion kinase 1 = Focal adhesion kinase 1 (Homo sapiens, UniProt Q05397); type: functional;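 also: measured as one member of a kinome panel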
# [31] = biological target: Leucine-rich repeat serine/threonine-protein kinase 2 (Homo sapiens, UniProt Q5S007); type: functional;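 also: value from a broad kinome-wide panel profiling study in which LRRK2 was one of the kinases tested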
# Aurora kinase B = Aurora kinase B (Homo sapiens, UniProt Q96GD4); type: functional
# [32] = biological target: Rho-associated protein kinase 1 (Homo sapiens, UniProt Q13464); type: functional;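 also: measured within a broad kinome-wide panel profiling many kinases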
# [33] = biological target: Cyclin-dependent kinase 8 (Homo sapiens, UniProt P49336); experiment: Navigating the Kinome. Panel member name: CDK8; type: functional
# [34] = biological target: Cyclin-dependent kinase 7 (Homo sapiens, UniProt P50613); type: functional;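 also: value comes from a kinome-wide kinase profiling panel in which CDK7 is one member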
# [35] = biological target: Vascular endothelial growth factor receptor 1 (Homo sapiens, UniProt P17948); type: functional;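 also: measured within a kinome-wide profiling panel, FLT1 as the panel member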
# [36] = biological target: Glycogen synthase kinase-3 beta (Homo sapiens, UniProt P49841); type: functional;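 also: value comes from a broad kinome profiling panel, with GSK3B as the panel member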
# [37] = biological target: Cyclin-dependent kinase 9 (Homo sapiens, UniProt P50750); type: functional;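 also: value from the CDK9 entry of a kinome-spanning kinase panel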
# [38] = biological target: cAMP-dependent protein kinase catalytic subunit alpha (Homo sapiens, UniProt P17612); type: functional
# [39] = biological target: Dual specificity protein kinase CLK4 (Homo sapiens, UniProt Q9HAZ1); type: functional
# [40] = biological target: Mitogen-activated protein kinase kinase kinase kinase 4 (Homo sapiens, UniProt O95819); type: functional
# [41] = biological target: Macrophage-stimulating protein receptor (Homo sapiens, UniProt Q04912); experiment: Navigating the Kinome. Panel member name: MST1R; type: functional
# [42] = biological target: Macrophage colony-stimulating factor 1 receptor (Homo sapiens, UniProt P07333); type: functional;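 also: value comes from the Navigating the Kinome screening panel, CSF1R member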
# [43] = biological target: Dual specificity mitogen-activated protein kinase kinase 2 (Homo sapiens, UniProt P36507); experiment: Navigating the Kinome. Panel member name: MAP2K2; type: functional
# [44] = biological target: Dual specificity tyrosine-phosphorylation-regulated kinase 1A (Homo sapiens, UniProt Q13627); type: functional;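 also: measured against DYRK1A as one member of a broad kinome profiling panel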
# [45] = biological target: Inhibitor of nuclear factor kappa-B kinase subunit epsilon (Homo sapiens, UniProt Q14164); experiment: Navigating the Kinome. Panel member name: IKBKE; type: functional
# [46] = biological target: Leukocyte tyrosine kinase receptor (Homo sapiens, UniProt P29376); experiment: Navigating the Kinome. Panel member name: LTK; type: functional
# [47] = biological target: Sphingosine 1-phosphate receptor 2 (Homo sapiens, UniProt O95136); experiment: Late-stage fluorescence-based dose-response cell-based counterscreen assay to identify agonists of the Sphingosine 1-Phosphate Receptor 3 (S1P3): Sphingosine 1-Phosphate Receptor 2 (S1P2) agonist assay.; type: functional
# [48] = biological target: Sphingosine 1-phosphate receptor 4 (Homo sapiens, UniProt O95977); experiment: Late-stage fluorescence-based dose-response cell-based counterscreen assay to identify agonists of the Sphingosine 1-Phosphate Receptor 3 (S1P3): Sphingosine 1-Phosphate Receptor 4 (S1P4) agonist assay.; type: functional
# Sequence of Sphingosine 1-phosphate receptor 4 (O95977 whole entry): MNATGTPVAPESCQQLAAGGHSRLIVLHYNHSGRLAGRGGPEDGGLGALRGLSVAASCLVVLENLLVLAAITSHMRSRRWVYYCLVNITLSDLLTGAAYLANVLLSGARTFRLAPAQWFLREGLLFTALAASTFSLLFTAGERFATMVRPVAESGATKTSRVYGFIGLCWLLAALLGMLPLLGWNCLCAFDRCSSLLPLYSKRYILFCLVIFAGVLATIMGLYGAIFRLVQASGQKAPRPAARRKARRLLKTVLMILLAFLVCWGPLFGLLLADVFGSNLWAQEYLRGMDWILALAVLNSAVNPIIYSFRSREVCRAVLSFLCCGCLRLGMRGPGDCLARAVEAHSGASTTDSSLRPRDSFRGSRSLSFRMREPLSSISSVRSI
# Sequence of Death-associated protein kinase 3 (O43293 whole entry): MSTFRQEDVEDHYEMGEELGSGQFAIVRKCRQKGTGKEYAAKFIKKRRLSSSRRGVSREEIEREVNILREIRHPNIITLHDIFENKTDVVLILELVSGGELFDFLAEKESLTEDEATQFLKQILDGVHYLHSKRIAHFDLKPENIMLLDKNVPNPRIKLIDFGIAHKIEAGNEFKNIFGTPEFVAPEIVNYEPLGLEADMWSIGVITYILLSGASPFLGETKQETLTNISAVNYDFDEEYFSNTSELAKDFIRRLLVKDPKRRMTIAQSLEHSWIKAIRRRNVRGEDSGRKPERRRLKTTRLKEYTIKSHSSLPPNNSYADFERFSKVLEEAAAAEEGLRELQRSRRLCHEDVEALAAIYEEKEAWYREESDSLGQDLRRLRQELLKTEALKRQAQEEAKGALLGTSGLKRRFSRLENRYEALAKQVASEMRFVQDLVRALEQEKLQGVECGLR
# Sequence of Activated CDC42 kinase 1 (Q07912 whole entry): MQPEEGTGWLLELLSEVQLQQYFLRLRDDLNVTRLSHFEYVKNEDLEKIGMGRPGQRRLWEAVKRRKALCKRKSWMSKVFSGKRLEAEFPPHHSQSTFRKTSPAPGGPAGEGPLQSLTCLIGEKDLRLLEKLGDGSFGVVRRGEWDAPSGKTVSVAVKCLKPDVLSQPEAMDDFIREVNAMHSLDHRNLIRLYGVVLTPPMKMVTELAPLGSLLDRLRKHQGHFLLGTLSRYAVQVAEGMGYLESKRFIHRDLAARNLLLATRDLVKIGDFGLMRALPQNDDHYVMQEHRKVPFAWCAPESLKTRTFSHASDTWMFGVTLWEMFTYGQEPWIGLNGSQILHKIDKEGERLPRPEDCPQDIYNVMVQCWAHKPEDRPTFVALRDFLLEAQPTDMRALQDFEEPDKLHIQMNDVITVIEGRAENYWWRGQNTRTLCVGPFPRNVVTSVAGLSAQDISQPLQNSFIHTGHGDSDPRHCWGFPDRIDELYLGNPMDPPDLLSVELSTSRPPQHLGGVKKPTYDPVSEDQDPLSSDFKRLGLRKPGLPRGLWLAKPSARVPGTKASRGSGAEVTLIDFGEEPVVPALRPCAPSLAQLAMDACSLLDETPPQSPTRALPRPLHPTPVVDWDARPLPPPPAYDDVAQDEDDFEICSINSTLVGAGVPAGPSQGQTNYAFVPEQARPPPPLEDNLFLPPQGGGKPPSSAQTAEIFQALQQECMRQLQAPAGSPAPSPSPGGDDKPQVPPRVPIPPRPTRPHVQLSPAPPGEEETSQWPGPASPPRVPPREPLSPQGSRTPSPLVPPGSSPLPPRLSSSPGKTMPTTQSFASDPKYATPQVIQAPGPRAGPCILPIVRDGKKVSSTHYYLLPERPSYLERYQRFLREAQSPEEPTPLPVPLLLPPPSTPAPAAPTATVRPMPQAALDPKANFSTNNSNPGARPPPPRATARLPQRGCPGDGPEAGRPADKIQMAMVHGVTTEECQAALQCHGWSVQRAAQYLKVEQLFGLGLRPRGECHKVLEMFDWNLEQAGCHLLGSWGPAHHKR
# Sequence of Ribosomal protein S6 kinase alpha-3 (P51812 whole entry): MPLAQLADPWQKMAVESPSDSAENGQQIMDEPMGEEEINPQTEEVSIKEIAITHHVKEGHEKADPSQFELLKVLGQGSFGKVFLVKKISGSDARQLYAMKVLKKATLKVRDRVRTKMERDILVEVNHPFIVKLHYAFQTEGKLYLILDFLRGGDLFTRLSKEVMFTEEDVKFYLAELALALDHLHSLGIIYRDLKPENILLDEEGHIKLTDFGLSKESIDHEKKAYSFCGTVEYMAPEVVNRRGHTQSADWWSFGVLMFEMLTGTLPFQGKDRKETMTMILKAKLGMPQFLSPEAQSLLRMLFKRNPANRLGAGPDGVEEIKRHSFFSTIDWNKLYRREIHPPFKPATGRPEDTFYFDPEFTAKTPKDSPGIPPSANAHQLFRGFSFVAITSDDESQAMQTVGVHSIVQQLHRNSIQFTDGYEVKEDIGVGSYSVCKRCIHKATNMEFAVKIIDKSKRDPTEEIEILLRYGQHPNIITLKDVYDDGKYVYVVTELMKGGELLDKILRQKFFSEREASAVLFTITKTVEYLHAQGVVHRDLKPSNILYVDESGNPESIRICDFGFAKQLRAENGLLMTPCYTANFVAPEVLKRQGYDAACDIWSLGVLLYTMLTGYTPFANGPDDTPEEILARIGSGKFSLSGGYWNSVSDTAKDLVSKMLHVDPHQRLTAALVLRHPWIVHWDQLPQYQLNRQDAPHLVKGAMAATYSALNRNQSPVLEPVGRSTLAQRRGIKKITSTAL
# Sequence of Sphingosine 1-phosphate receptor 2 (O95136 whole entry): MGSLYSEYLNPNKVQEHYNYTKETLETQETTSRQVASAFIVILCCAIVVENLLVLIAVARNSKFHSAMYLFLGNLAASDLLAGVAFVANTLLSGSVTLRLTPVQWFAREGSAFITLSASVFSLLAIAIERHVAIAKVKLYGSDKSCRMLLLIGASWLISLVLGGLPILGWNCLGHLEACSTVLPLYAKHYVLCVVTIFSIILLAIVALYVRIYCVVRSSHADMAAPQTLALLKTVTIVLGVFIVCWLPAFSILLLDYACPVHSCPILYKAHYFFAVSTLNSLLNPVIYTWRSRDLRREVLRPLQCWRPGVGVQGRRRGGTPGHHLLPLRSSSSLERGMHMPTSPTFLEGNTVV
# Sequence of Serine/threonine-protein kinase TBK1 (Q9UHD2 whole entry): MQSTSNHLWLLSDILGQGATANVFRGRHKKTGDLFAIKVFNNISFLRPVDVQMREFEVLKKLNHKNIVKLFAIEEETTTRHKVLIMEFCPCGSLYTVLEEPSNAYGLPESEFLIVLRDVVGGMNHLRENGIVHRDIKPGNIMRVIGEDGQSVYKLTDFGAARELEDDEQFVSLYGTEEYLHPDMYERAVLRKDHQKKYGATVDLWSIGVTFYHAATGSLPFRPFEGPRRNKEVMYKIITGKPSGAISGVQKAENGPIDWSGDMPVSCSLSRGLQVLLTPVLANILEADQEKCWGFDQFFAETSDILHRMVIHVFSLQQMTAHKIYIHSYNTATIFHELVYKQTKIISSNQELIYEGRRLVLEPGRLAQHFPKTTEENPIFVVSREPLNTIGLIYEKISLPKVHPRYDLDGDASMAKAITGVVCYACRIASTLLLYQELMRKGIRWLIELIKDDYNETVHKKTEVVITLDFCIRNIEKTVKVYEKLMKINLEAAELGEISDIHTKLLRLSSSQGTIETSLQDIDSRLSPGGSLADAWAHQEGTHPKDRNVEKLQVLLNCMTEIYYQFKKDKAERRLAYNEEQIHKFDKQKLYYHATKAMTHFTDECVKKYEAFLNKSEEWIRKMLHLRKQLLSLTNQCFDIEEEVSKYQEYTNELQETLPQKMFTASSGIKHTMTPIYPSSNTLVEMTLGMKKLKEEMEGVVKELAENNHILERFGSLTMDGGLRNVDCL
# Sequence of Dual specificity protein kinase CLK4 (Q9HAZ1 whole entry): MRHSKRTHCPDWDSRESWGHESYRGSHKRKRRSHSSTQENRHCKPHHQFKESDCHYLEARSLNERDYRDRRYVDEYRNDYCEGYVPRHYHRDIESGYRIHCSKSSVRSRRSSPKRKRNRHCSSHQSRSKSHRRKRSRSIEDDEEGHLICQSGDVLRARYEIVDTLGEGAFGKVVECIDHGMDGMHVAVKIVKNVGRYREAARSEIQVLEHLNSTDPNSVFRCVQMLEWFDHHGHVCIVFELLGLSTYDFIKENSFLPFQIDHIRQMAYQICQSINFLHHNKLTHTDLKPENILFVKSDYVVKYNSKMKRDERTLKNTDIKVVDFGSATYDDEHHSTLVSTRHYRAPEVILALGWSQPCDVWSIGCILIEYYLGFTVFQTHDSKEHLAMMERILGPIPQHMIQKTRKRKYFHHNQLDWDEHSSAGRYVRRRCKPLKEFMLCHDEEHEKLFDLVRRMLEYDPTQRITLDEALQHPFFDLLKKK
# Sequence of Mitogen-activated protein kinase 9 (P45984 whole entry): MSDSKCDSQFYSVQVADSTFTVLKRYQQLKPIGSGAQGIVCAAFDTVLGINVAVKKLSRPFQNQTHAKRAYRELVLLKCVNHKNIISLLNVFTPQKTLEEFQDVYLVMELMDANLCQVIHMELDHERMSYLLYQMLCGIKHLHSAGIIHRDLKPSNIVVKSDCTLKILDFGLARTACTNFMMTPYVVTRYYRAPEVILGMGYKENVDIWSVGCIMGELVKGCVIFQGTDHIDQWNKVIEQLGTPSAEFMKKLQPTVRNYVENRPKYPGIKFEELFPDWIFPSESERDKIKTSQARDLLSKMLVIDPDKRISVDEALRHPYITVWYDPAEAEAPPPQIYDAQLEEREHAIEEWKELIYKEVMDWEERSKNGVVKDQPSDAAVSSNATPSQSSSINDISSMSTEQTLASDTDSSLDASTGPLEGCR
# Sequence of Casein kinase I isoform alpha (P48729 whole entry, canonical isoform): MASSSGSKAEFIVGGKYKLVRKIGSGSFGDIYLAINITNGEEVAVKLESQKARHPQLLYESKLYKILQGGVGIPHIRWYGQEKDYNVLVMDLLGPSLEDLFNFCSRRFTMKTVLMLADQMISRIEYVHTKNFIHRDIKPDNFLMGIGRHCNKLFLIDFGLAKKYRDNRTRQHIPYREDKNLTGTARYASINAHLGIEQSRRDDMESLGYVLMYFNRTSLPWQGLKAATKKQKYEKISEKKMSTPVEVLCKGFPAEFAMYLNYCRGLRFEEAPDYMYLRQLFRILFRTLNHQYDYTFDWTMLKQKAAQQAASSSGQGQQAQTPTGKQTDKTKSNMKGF
smiles,measurement,setting,value
CC(C)CC(C(=O)N1CCc2ccccc2C1)N1C(=O)c2ccccc2C1=O (stereo not drawn),EC50,[1],22.4 µM (active)
same,IC50,cells [2],> 29.9 µM (inactive)
same,EC50,[3],2.96 µM (active)
same,IC50,[4],5.55 µM (active)
same,EC50,cells [5],> 29.9 µM (inactive)
Fc1cccc(CNc2ncnc3nc[nH]c23)c1,Ki,[6],50.1 µM (active)
same,Ki,[7],39.8 µM (active)
same,Ki,[8],25.1 µM (active)
same,Ki,[9],10 µM (active)
same,Ki,[10],31.6 µM (active)
same,Ki,[11],63.1 µM (active)
same,Ki,[12],15.8 µM (active)
same,Ki,[13],63.1 µM (active)
same,Ki,[14],63.1 µM (active)
same,Ki,[15],63.1 µM (active)
same,Ki,[16],31.6 µM (active)
same,Ki,Activin receptor type-1,39.8 µM (active)
same,Ki,[17],15.8 µM (active)
same,Ki,Aurora kinase A,39.8 µM (active)
same,Ki,[18],63.1 µM (active)
same,Ki,[19],20 µM (active)
same,Ki,[20],25.1 µM (active)
same,Ki,[21],10 µM (active)
same,Ki,[22],63.1 µM (active)
same,Ki,[23],50.1 µM (active)
same,Ki,[24],50.1 µM (active)
same,Ki,[25],79.4 µM (active)
same,Ki,Activated CDC42 kinase 1,25.1 µM (active)
same,Ki,[26],12.6 µM (active)
same,Ki,[27],50.1 µM (active)
same,Ki,[28],25.1 µM (active)
same,Ki,[29],5.01 µM (active)
same,Ki,[30],12.6 µM (active)
same,Ki,Focal adhesion kinase 1,79.4 µM (active)
same,Ki,[31],2 µM (active)
same,Ki,Aurora kinase B,15.8 µM (active)
same,Ki,[32],5.01 µM (active)
same,Ki,[33],12.6 µM (active)
same,Ki,[34],31.6 µM (active)
same,Ki,[35],79.4 µM (active)
same,Ki,[36],50.1 µM (active)
same,Ki,[37],> 63.1 µM (inactive)
same,Ki,[38],10 µM (active)
same,Ki,[39],1.58 µM (active)
same,Ki,[40],79.4 µM (active)
same,Ki,[41],31.6 µM (active)
same,Ki,[42],31.6 µM (active)
same,Ki,[43],39.8 µM (active)
same,Ki,[44],39.8 µM (active)
same,Ki,[45],100 µM (active)
same,Ki,[46],15.8 µM (active)
CCCc1cc(C(=O)N(C2CCCCC2)C2CCCC2)no1,EC50,[47],> 50 µM (inactive)
same,EC50,[48],> 50 µM (inactive)
